According to patent publication US6753323B2, “Topical administration of amifostine and related compounds” (MedImmune Oncology, Inc., priority 1998, dated 2004):

Assays:
[1] = Radiation-induced mucositis in mice (inferior lip mucosa model, Parkins score); format: in vivo, C57BL/6 mice; conditions: C57BL/6, mouse, in vivo; IP, given before each fraction of radiation, mice; read-out: maximum tolerated dose
Description: (§1) The experimental murine model was developed by Parkins et al., Radiother. […] C57BL/6 mice 8-10 weeks old were used and fed with semi-liquid food. Unanesthetized mice were maintained in supine position and irradiated exclusively on the tip of the mouth. […] J. Radiat. Oncol. Biol. Phys., 8, 145-148 (1982). The irradiation was performed with an RT 250 Phillips apparatus, delivering 1.98 Gy/min (200 kV, 20 mA, filter of 0.2 mm Cu). During irradiation, a constant normobaric air renewal was maintained.
(§2) For the systemic applications, amifostine was dissolved in a […] solution 5 minutes before systemic IP injection of 200 to 400 mg/kg, which was administered 30 minutes before irradiation. A placebo solution of […] was used for a control group. For the topical applications, 50 mg of amifostine was dissolved in 1 mL of a solution containing 1% stearate, 5% H2O, and ammonia to adjust the pH of the solution to 8.8. The topical application was administered to the lip mucosa of the mice for a period of 30 minutes before each radiation session, and was maintained throughout the duration of irradiation. A single dose of 16.5 Gy, and a fractionated schedule delivering 24 Gy in 4 fractions over 2 days (with 8 hour intervals between fractions) were administered.
(§3) Four groups of eight mice were scored and weighed each day. Any mice having lost 30% or more of the initial weight was sacrificed. The effect of mucositis and weight loss were compared at the maximum of the acute reactions (day 11) among the different groups receiving or not receiving amifostine treatments, using the Mann and Whitney test.

[2] = test system: inferior lip mucosa of the mice; test: as above; format: in vivo, C57BL/6 mice; conditions: for maximum grade of mucosal reactions: Parkins score
Description: as §1, §2, §3

Aspergillus niger = test: Microbial growth inhibition, refrigerated storage (2°-8° C.); format: cell-based; conditions: A. niger, refrigerated 2°-8° C.; for % Change: vs theoretical 0 hr count
Description: (§4) Amifostine was studied for its ability to inhibit microbial growth. Clear 10 cc vials, stoppers and seals were sterilized for use in the study. Two separate procedures were performed: a refrigerated storage study (2° to 8° C.) and a room temperature storage study (20° to 25° C.). For each test portion, positive controls were prepared for each organism by placing 9.5 mL sterile 0.9% sodium chloride into separate sterile vials and inoculating each with 10^3 to 10^4 of one of the test organisms. In addition, amifostine test specimens were prepared for each test portion by reconstituting six Ethyol® vials with 0.9% sodium chloride, the contents of each of these vials were then transferred to clear sterile vials to allow for easier visual examination. One vial was designated as a negative control, and each of the remaining five vials was inoculated with 10^3 to 10^4 of one of the test organisms. All vials were protected from light throughout the test to simulate the amber Ethyol® vial.
(§5) Positive controls, product test specimens, and a negative control were prepared. At this time, population counts were performed on each positive control. Population counts were also performed on positive controls and product test specimens at 24, 48 and 72 hours. These samples were diluted with sterile water and plated in duplicate with a target of 30 to 300 colonies per plate. Candida albicans, Escherichia coli, Pseudomonas aeruginosa, and Staphylococcus aureus were overpoured with TSA agar and incubated at 30-35° C. for 48 hours. Aspergillus niger was overpoured with Sabouraud agar and incubated at 20-25° C. for 48 hours.

Candida albicans = test: as above; format: cell-based; conditions: refrigerated 2°-8° C.; for % Change: vs theoretical 0 hr count
Description: as §4, §5

Escherichia coli = test: as above; format: cell-based; conditions: E. coli, refrigerated 2°-8° C.; for % Change: vs theoretical 0 hr count
Description: as §4, §5

Pseudomonas aeruginosa [3] = test: as above; format: cell-based; conditions: P. aeruginosa, refrigerated 2°-8° C.; for % Change: vs theoretical 0 hr count
Description: as §4, §5

Staphylococcus aureus [4] = test: as above; format: cell-based; conditions: S. aureus, refrigerated 2°-8° C.; for % Change: vs theoretical 0 hr count
Description: as §4, §5

Pseudomonas aeruginosa [5] = test: Microbial growth inhibition, room temperature storage (20°-25° C.); format: cell-based; conditions: P. aeruginosa, room temperature 20°-25° C.; for % Change: vs theoretical 0 hr count
Description: as §4
as §5, with “24 and” for “24,”, “48” for “48 and 72”

Staphylococcus aureus [6] = test: as above; format: cell-based; conditions: S. aureus, room temperature 20°-25° C.; for % Change: vs theoretical 0 hr count
Description: as §4
as §5, with “24 and” for “24,”, “48” for “48 and 72”

oral mucosa of mice = conditions: topical in carbowax to oral mucosa; cited from earlier work
mouse skin = conditions: cited from earlier work
rectal wall of rats = conditions: intrarectal injection of 2% amifostine gel; cited from earlier work
[7] = test system: intestinal mucosa in patients; conditions: enema in Proctofoam, 100 to 450 mg, 45 minutes prior to pelvic radiation; cited from earlier work

NCCCNCCSP(=O)(O)O [amifostine, S-2-(3-aminopropylamino)ethyl dihydrogen phosphorothioate]
MTD at 2 days [1]: 400 mg/kg | maximum grade of mucosal reactions ([2]; 200 mg/kg IP 30 min before irradiation, 24 Gy in 4 fractions over 2 days, day 11, ± standard error): 3.5±0.2 | maximum grade of mucosal reactions ([2]; 400 mg/kg IP 30 min before irradiation, 24 Gy in 4 fractions over 2 days, day 11, ± standard error): 2.5±0.4 | grades of mucosal reactions compared to the control group ([2]; single dose of 16.5 Gy, IP and topical amifostine groups): significantly lower | maximum grade of mucositis ([2]; topical 50 mg/mL solution pH 8.8 on lip mucosa 30 min before and during irradiation, 24 Gy in 4 fractions over 2 days, day 11, ± standard error): 3.9±0.2 | CFU/mL in Amifostine (Aspergillus niger; 24 hr): 1.78 × 10^5 CFU/mL | % Change (Aspergillus niger; 24 hr): −40.7% | CFU/mL in Amifostine (Aspergillus niger; 48 hr): 1.67 × 10^5 CFU/mL | % Change (Aspergillus niger; 48 hr): −44.3% | CFU/mL in Amifostine (Aspergillus niger; 72 hr): 1.67 × 10^5 CFU/mL | % Change (Aspergillus niger; 72 hr): −44.3% | CFU/mL in Amifostine (Candida albicans; 24 hr): 3.99 × 10^3 CFU/mL | % Change (Candida albicans; 24 hr): −63.0% | CFU/mL in Amifostine (Candida albicans; 48 hr): 2.09 × 10^3 CFU/mL | % Change (Candida albicans; 48 hr): −80.6% | CFU/mL in Amifostine (Candida albicans; 72 hr): 7.13 × 10^3 CFU/mL | % Change (Candida albicans; 72 hr): −34.0% | CFU/mL in Amifostine (Escherichia coli; 24 hr): 2.85 × 10^2 CFU/mL | % Change (Escherichia coli; 24 hr): −70.0% | CFU/mL in Amifostine (Escherichia coli; 48 hr): 0 CFU/mL | % Change (Escherichia coli; 48 hr): −100% | CFU/mL in Amifostine (Escherichia coli; 72 hr): 0 CFU/mL | % Change (Escherichia coli; 72 hr): −100% | CFU/mL in Amifostine (Pseudomonas aeruginosa [3]; 24 hr): 3.04 × 10^3 CFU/mL | % Change (Pseudomonas aeruginosa [3]; 24 hr): −20.0% | CFU/mL in Amifostine (Pseudomonas aeruginosa [3]; 48 hr): 1.76 × 10^3 CFU/mL | % Change (Pseudomonas aeruginosa [3]; 48 hr): −53.7% | CFU/mL in Amifostine (Pseudomonas aeruginosa [3]; 72 hr): 1.85 × 10^3 CFU/mL | % Change (Pseudomonas aeruginosa [3]; 72 hr): −51.3% | CFU/mL in Amifostine (Staphylococcus aureus [4]; 24 hr): 4.75 × 10^1 CFU/mL | % Change (Staphylococcus aureus [4]; 24 hr): −50.0% | CFU/mL in Amifostine (Staphylococcus aureus [4]; 48 hr): 4.75 × 10^1 CFU/mL | % Change (Staphylococcus aureus [4]; 48 hr): −50.0% | CFU/mL in Amifostine (Staphylococcus aureus [4]; 72 hr): 4.75 × 10^1 CFU/mL | % Change (Staphylococcus aureus [4]; 72 hr): −50.0% | CFU/mL in Amifostine (Pseudomonas aeruginosa [5]; 24 hr): 5.22 × 10^2 CFU/mL | % Change (Pseudomonas aeruginosa [5]; 24 hr): −80.0% | CFU/mL in Amifostine (Pseudomonas aeruginosa [5]; 48 hr): 0 CFU/mL | % Change (Pseudomonas aeruginosa [5]; 48 hr): −100% | CFU/mL in Amifostine (Staphylococcus aureus [6]; 24 hr): 9.60 × 10^4 CFU/mL | % Change (Staphylococcus aureus [6]; 24 hr): −4.0% | CFU/mL in Amifostine (Staphylococcus aureus [6]; 48 hr): 3.32 × 10^2 CFU/mL | % Change (Staphylococcus aureus [6]; 48 hr): −99.7% | toxicity at the dosages tested (oral mucosa of mice): no toxicity observed | radioprotective effect, topically applied (mouse skin; paste (aqueous sodium bicarbonate pH 7 and Unibase) on mouse skin, any dose studied): no radioprotective effect | radioprotective effect, systemically administered (mouse skin; systemic administration, mice): effective in reducing the severity of radiation damage | tissue level of metabolite WR-1065 after topical application (rectal wall of rats): accumulation of the amifostine metabolite WR-1065 in the rectal wall | rectal mucosal damage, test group vs control group [7]: no significant differences
